# Reference: patent US6737383B1, “Herbicidal oxadiazolidines” (priority 1999, dated 2004)
# Experiments:
# fall panicum = experiment: Test C postemergence fall panicum; type: in vivo, Panicum dichotomiflorum; conditions: 0 to 100 scale, 0 no effect, 100 complete control
# Outline: (§1)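 Compounds in a non-phytotoxic solvent with surfactant were sprayed postemergence on greenhouse-grown plants in 60:40 sandy loam/potting mix. After about 14 to 21 days, visual ratings against untreated controls on a 0 (no effect) to 100 (complete control) scale.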
# field bindweed = experiment: Test C postemergence field bindweed; type: in vivo, Convolvulus arvensis; conditions: 0 to 100 scale, 0 no effect, 100 complete control
# Outline: as §1
# lambsquarters = experiment: Test C postemergence lambsquarters; type: in vivo, Chenopodium album; conditions: 0 to 100 scale, 0 no effect, 100 complete control
# Experimental: (§2) Compounds evaluated in this test were formulated in a non-phytotoxic solvent mixture which included a surfactant and applied to plants that were grown for various periods of time before treatment (postemergence application). A mixture of sandy loam soil and greenhouse potting mix in a 60:40 ratio was used for the postemergence test.
# (§3) Plantings of these crops and weed species were adjusted to produce plants of appropriate size for the postemergence test. All plant species were grown using normal greenhouse practices. Crop and weed species include arrowleaf sida (Sida rhombifolia), barnyardgrass (Echinochloa crus-galli), cocklebur (Xanthium strumarium), common ragweed (Ambrosia elatior), corn (Zea mays), cotton (Gossypium hirsutum), eastern black nightshade (Solanum ptycanthum), fall panicum (Panicum dichotomiflorum), field bindweed (Convolvulus arvensis), giant foxtail (Setaria faberii), hairy beggarticks (Bidens pilosa), ivyleaf morningglory (Ipomoea hederacea), johnsongrass (Sorghum halepense), ladysthumb smartweed (Polygonum persicaria), lambsquarters (Chenopodium album), large crabgrass (Digitaria sanguinalis), purple nutsedge (Cyperus rotundus), redroot pigweed (Amaranthus retroflexus), soybean (Glycine max), surinam grass (Brachiaria decumbens), velvetleaf (Abutilon theophrasti) and wild poinsettia (Euphorbia heterophylla).
# (§4) Treated plants and untreated controls were maintained in a greenhouse for approximately 14, to 21 days, after which all treated plants were compared to untreated controls and visually evaluated. Plant response ratings, summarized in Table C, were based upon a 0 to 100 scale where 0 was no effect and 100 was complete control. A dash response (−) means no test result.
# surinam grass = experiment: Test C postemergence surinam grass; type: in vivo, Brachiaria decumbens; conditions: 0 to 100 scale, 0 no effect, 100 complete control
# Experimental: as §2, §3, §4
# redroot pigweed [1] = experiment: Test C postemergence redroot pigweed; type: in vivo, Amaranthus retroflexus; conditions: 0 to 100 scale, 0 no effect, 100 complete control
# Experimental: as §2, §3, §4
# redroot pigweed [2] = experiment: Test E redroot pigweed; type: in vivo, Amaranthus retroflexus; conditions: Postemergence
# Experimental: (§5) Compounds evaluated in this test were formulated in a non-phytotoxic solvent mixture which included a surfactant and applied to plants that were in the 1- to 4-leaf stage (postemergence application). A mixture of sandy loam soil and greenhouse potting mix in a 60:40 ratio was used for the postemergence test.
# (§6) Plantings of these crops and weed species were adjusted to produce plants of appropriate size for the postemergence test. All plant species were grown using normal greenhouse practices. Crop and weed species include annual bluegrass (Poa annua), blackgrass (Alopecurus myosuroides), black nightshade (Solanum nigra), chickweed (Stellaria media), common poppy (Papaver rhoeas), deadnettle (Lamium amplexicaule), downy brome (Bromus tectorum), field violet (Viola arvensis), galium (Galium aparine), green foxtail (Setaria viridis), Italian ryegrass (Lolium multiflorum), jointed goatgrass (Aegilops cylindrica), kochia (Kochia scoparia), lambsquarters (Chenopodium album), littleseed canarygrass (Phalaris minor), rape (Brassica napus), redroot pigweed (Amaranthus retroflexus), Russian thistle (Salsola kali), scentless chamomile (Matricaria inodora), spring barley (Hordeum vulgare), sugar beet (Beta vulgaris), sunflower (Helianthus annuus), ivyleaf speedwell (Veronica hederaefolia), spring wheat (Triticum aestivum), winter wheat (Triticum aestivum), wild buckwheat (Polygonum convolvulus), wild mustard (Sinapis arvensis), wild oat (Avena fatua), windgrass (Apera spica-venti) and winter barley (Hordeum vulgare).
# (§7) Treated plants and untreated controls were maintained in a greenhouse for approximately 21 to 28 days, after which all treated plants were compared to untreated controls and visually evaluated. […] A dash response (-) means no test result.
# deadnettle = experiment: Test E deadnettle; type: in vivo, Lamium amplexicaule; conditions: Preemergence
# rape = experiment: Test E rape; type: in vivo, Brassica napus; conditions: Preemergence
# spring wheat = experiment: Test E spring wheat; type: in vivo, Triticum aestivum; conditions: Postemergence
# Outline: (§8)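 Greenhouse test: for postemergence, foliar application at 1- to 4-leaf stage; compound in non-phytotoxic solvent with surfactant. Rating is visual, relative to untreated controls, about 21 to 28 days after treatment.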
# wild mustard = experiment: Test E wild mustard; type: in vivo, Sinapis arvensis; conditions: Preemergence
# ivyleaf speedwell = experiment: Test E postemergence ivyleaf speedwell; type: in vivo, Veronica hederaefolia
# Experimental: as §5, §6, §7
# common poppy = experiment: Test E common poppy; type: in vivo, Papaver rhoeas; conditions: Postemergence
# Outline: as §8
# kochia [3] = experiment: Test E kochia; type: in vivo, Kochia scoparia; conditions: Postemergence
# Outline: as §8
# jointed goatgrass = experiment: Test E jointed goatgrass; type: in vivo, Aegilops cylindrica; conditions: Postemergence
# Experimental: as §5, §6, §7
# sunflower = experiment: Test E sunflower; type: in vivo, Helianthus annuus; conditions: Preemergence
# kochia [4] = experiment: Test E kochia; type: in vivo, Kochia scoparia; conditions: Preemergence
# chickweed = experiment: Test E chickweed; type: in vivo, Stellaria media; conditions: Postemergence
# Experimental: as §5, §6, §7
# [5] = Rate 250 g/ha, 0 to 100 scale (0 no effect, 100 complete control)
# [6] = Rate 500 g/ha, 0 to 100 scale, 0 no effect, 100 complete control
# [7] = Rate 125 g/ha, 0 to 100 scale (0 no effect, 100 complete control)
# [8] = Rate 500 g/ha, 0 to 100 scale where 0 is no effect and 100 is complete control
smiles,measurement,setting,value
CCn1c(=O)on(C(=O)N(c2ccccc2)C(C)C)c1=O [Compound 117],Plant response rating Fall panicum,fall panicum; Rate 140 g/ha,0
same,Plant response rating Fall panicum,fall panicum; Rate 560 g/ha,40
same,Plant response rating Fall panicum,fall panicum; Rate 1120 g/ha,80
same,Plant response rating Field bindweed,field bindweed; Rate 140 g/ha,0
same,Plant response rating Field bindweed,field bindweed; Rate 280 g/ha,30
same,Plant response rating Field bindweed,field bindweed; Rate 560 g/ha,30
same,Plant response rating Field bindweed,field bindweed; Rate 1120 g/ha,40
same,"Plant response rating, Lambsquarters",lambsquarters; Rate 140 g/ha,0
same,"Plant response rating, Lambsquarters",lambsquarters; Rate 280 g/ha,0
same,"Plant response rating, Lambsquarters",lambsquarters; Rate 560 g/ha,0
same,"Plant response rating, Lambsquarters",lambsquarters; Rate 1120 g/ha,0
same,"Plant response rating, Surinam grass",surinam grass; Rate 140 g/ha,0
same,"Plant response rating, Surinam grass",surinam grass; Rate 280 g/ha,0
same,"Plant response rating, Surinam grass",surinam grass; Rate 560 g/ha,40
same,"Plant response rating, Surinam grass",surinam grass; Rate 1120 g/ha,90
same,"Plant response rating, Redroot pigweed",redroot pigweed [1]; Rate 140 g/ha,0
same,"Plant response rating, Redroot pigweed",redroot pigweed [1]; Rate 280 g/ha,0
same,"Plant response rating, Redroot pigweed",redroot pigweed [1]; Rate 560 g/ha,0
same,"Plant response rating, Redroot pigweed",redroot pigweed [1]; Rate 1120 g/ha,30
CC(C)N(C(=O)n1oc(=O)n(C(C)C)c1=O)c1ccc(Cl)cc1 [Compound 114],"Plant response rating, Redroot pigweed","redroot pigweed [2]; Rate 125 g/ha, 0 to 100 scale",15
same,"Plant response rating, Redroot pigweed",redroot pigweed [2]; [5],10
same,"Plant response rating, Redroot pigweed",redroot pigweed [2]; [6],20
same,"Plant response rating, Deadnettle",deadnettle; [7],20
same,"Plant response rating, Deadnettle","deadnettle; Rate 250 g/ha, 0 to 100 scale",20
same,"Plant response rating, Deadnettle",deadnettle; [8],20
same,"Plant response rating, Rape",rape; [7],0
same,"Plant response rating, Rape","rape; Rate 250 g/ha, 0 to 100 scale",20
same,"Plant response rating, Rape",rape; [8],50
same,"Plant response rating, Spring Wheat","spring wheat; Rate 125 g/ha, 0 to 100 scale",10
same,"Plant response rating, Spring Wheat",spring wheat; [5],20
same,"Plant response rating, Spring Wheat",spring wheat; [6],30
same,"Plant response rating, Wild mustard",wild mustard; [7],50
same,"Plant response rating, Wild mustard","wild mustard; Rate 250 g/ha, 0 to 100 scale",40
same,"Plant response rating, Wild mustard",wild mustard; [8],90
same,"Plant response rating, Veronica hedera","ivyleaf speedwell; Rate 125 g/ha, 0 to 100 scale",10
same,"Plant response rating, Veronica hedera",ivyleaf speedwell; [5],50
same,"Plant response rating, Veronica hedera",ivyleaf speedwell; [6],70
same,"Plant response rating, Comnion poppy","common poppy; Rate 125 g/ha, 0 to 100 scale",0
same,"Plant response rating, Common poppy",common poppy; [5],10
same,"Plant response rating, Common poppy",common poppy; [6],20
same,"Plant response rating, Kochia","kochia [3]; Rate 125 g/ha, 0 to 100 scale",20
same,"Plant response rating, Kochia",kochia [3]; [5],30
same,"Plant response rating, Kochia",kochia [3]; [6],30
same,"Plant response rating, Jointed goatgra","jointed goatgrass; Rate 125 g/ha, 0 to 100 scale",15
same,"Plant response rating, Jointed goatgra",jointed goatgrass; [5],5
same,"Plant response rating, Jointed goatgra",jointed goatgrass; [6],50
same,"Plant response rating, Sunflower",sunflower; [7],0
same,"Plant response rating, Sunflower","sunflower; Rate 250 g/ha, 0 to 100 scale",0
same,"Plant response rating, Sunflower",sunflower; [8],5
same,"Plant response rating, Kochia",kochia [4]; [7],25
same,"Plant response rating, Kochia","kochia [4]; Rate 250 g/ha, 0 to 100 scale",30
same,"Plant response rating, Kochia",kochia [4]; [8],30
same,"Plant response rating, Chickweed","chickweed; Rate 125 g/ha, 0 to 100 scale",10
same,"Plant response rating, Chickweed",chickweed; [5],0
same,"Plant response rating, Chickweed",chickweed; [6],10
